Laboratory results as given in ChEMBL document CHEMBL1201862, “PubChem BioAssay data set” (2004).
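Briefly, cells in 96-well plates were exposed to five compound concentrations for 48 h, and endpoints were estimated by linear interpolation. GI50 marks 50% less growth.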 The source made the active and inactive calls. No stated cut-off is given here; in the data, active = GI50 up to about 1.1 µM and inactive = higher.

Key:
Assay in all cases: growth of human tumour cells (NCI), 48 h
A549 = system: A549
SNB-75 = system: SNB-75
SK-OV-3 = system: SK-OV-3
SK-MEL-5 = system: SK-MEL-5
UO-31 = system: UO-31
COLO 205 = system: COLO 205
OVCAR-3 = system: OVCAR-3
SF-268 = system: SF-268
SK-MEL-28 = system: SK-MEL-28
SNB-19 = system: SNB-19
MCF7 = system: MCF7
CAKI-1 = system: CAKI-1
Malme-3M = system: Malme-3M
SF-539 = system: SF-539
K562 = system: K562
UACC-257 = system: UACC-257
MOLT-4 = system: MOLT-4
ACHN = system: ACHN
DU-145 = system: DU-145
PC-3 = system: PC-3

Row | SMILES | GI50 (A549) | GI50 (SNB-75) | GI50 (SK-OV-3) | GI50 (SK-MEL-5) | GI50 (UO-31) | GI50 (COLO 205) | GI50 (OVCAR-3) | GI50 (SF-268) | GI50 (SK-MEL-28) | GI50 (SNB-19) | GI50 (MCF7) | GI50 (CAKI-1) | GI50 (Malme-3M) | GI50 (SF-539) | GI50 (K562) | GI50 (UACC-257) | GI50 (MOLT-4) | GI50 (ACHN) | GI50 (DU-145) | GI50 (PC-3)
1 | Nc1ccn(C2OC(CO)C(O)C2O)c(=O)c1 (configuration not stated) | 179 µM (inactive) | 583 µM (inactive) | > 625 µM (inactive) | > 625 µM (inactive) | 360 µM (inactive) | 164 µM (inactive) | > 625 µM (inactive) | > 625 µM (inactive) | > 625 µM (inactive) | > 625 µM (inactive) | 188 µM (inactive) | 176 µM (inactive) | 114 µM (inactive) | 186 µM (inactive) | – | – | – | – | – | –
2 | O=C(O)C(Br)Cc1ccc2c(c1)OCO2 (configuration not stated) | > 100 µM (inactive) | 20.9 µM (inactive) | > 100 µM (inactive) | > 100 µM (inactive) | > 100 µM (inactive) | 55.7 µM (inactive) | > 100 µM (inactive) | > 100 µM (inactive) | > 100 µM (inactive) | > 100 µM (inactive) | – | > 100 µM (inactive) | 40.7 µM (inactive) | > 100 µM (inactive) | > 100 µM (inactive) | > 100 µM (inactive) | > 100 µM (inactive) | > 100 µM (inactive) | – | –
3 | C/C(N)=N/OCc1nc(C)no1 | > 100 µM (inactive) | > 100 µM (inactive) | > 100 µM (inactive) | > 100 µM (inactive) | > 100 µM (inactive) | > 100 µM (inactive) | > 100 µM (inactive) | > 100 µM (inactive) | > 100 µM (inactive) | > 100 µM (inactive) | > 100 µM (inactive) | > 100 µM (inactive) | – | > 100 µM (inactive) | > 100 µM (inactive) | > 100 µM (inactive) | > 100 µM (inactive) | > 100 µM (inactive) | > 100 µM (inactive) | > 100 µM (inactive)
4 | CC(=N/NC(=S)Nc1c(C)n(C)n(-c2ccccc2)c1=O)/C(C)=N\NC(=S)Nc1c(C)n(C)n(-c2ccccc2)c1=O | > 100 µM (inactive) | > 100 µM (inactive) | > 100 µM (inactive) | > 100 µM (inactive) | > 100 µM (inactive) | > 100 µM (inactive) | > 100 µM (inactive) | > 100 µM (inactive) | – | > 100 µM (inactive) | – | > 100 µM (inactive) | > 100 µM (inactive) | > 100 µM (inactive) | – | > 100 µM (inactive) | > 100 µM (inactive) | > 100 µM (inactive) | > 100 µM (inactive) | > 100 µM (inactive)
5 | CC1=Nc2nc(Cl)cn2C(=O)C1(Cl)Cl | > 10 µM (inactive) | > 10 µM (inactive) | > 10 µM (inactive) | > 10 µM (inactive) | > 10 µM (inactive) | > 10 µM (inactive) | > 10 µM (inactive) | > 10 µM (inactive) | > 10 µM (inactive) | > 10 µM (inactive) | > 10 µM (inactive) | > 10 µM (inactive) | > 10 µM (inactive) | > 10 µM (inactive) | > 10 µM (inactive) | – | > 10 µM (inactive) | > 10 µM (inactive) | > 10 µM (inactive) | > 10 µM (inactive)
6 | O=C(O)c1c[nH]c2c(=O)[nH]cnc12 | > 100 µM (inactive) | > 100 µM (inactive) | > 100 µM (inactive) | > 100 µM (inactive) | > 100 µM (inactive) | > 100 µM (inactive) | > 100 µM (inactive) | > 100 µM (inactive) | > 100 µM (inactive) | > 100 µM (inactive) | – | > 100 µM (inactive) | > 100 µM (inactive) | – | > 100 µM (inactive) | > 100 µM (inactive) | > 100 µM (inactive) | > 100 µM (inactive) | – | –
7 | CN(C)/N=C(/CC(O)(C(F)(F)F)C(F)(F)F)c1ccc([N+](=O)[O-])cc1 | > 100 µM (inactive) | > 100 µM (inactive) | > 100 µM (inactive) | > 100 µM (inactive) | 98.6 µM (inactive) | > 100 µM (inactive) | > 100 µM (inactive) | > 100 µM (inactive) | > 100 µM (inactive) | > 100 µM (inactive) | – | > 100 µM (inactive) | > 100 µM (inactive) | > 100 µM (inactive) | > 100 µM (inactive) | > 100 µM (inactive) | > 100 µM (inactive) | > 100 µM (inactive) | > 100 µM (inactive) | > 100 µM (inactive)
8 | BrC(/C=N/Nc1nnc(-c2ccccc2)c(-c2ccccc2)n1)C(Br)c1ccccc1 (configuration not stated) | 29.3 µM (inactive) | 22.2 µM (inactive) | 82.4 µM (inactive) | 21.9 µM (inactive) | 19.7 µM (inactive) | 33.2 µM (inactive) | 35.7 µM (inactive) | 29.2 µM (inactive) | 37.3 µM (inactive) | 64.4 µM (inactive) | – | 30.7 µM (inactive) | 28.5 µM (inactive) | 28.4 µM (inactive) | 22.6 µM (inactive) | 14.1 µM (inactive) | 17.7 µM (inactive) | 31 µM (inactive) | – | –
9 | COc1c2c(c3ccccc3c1O)C1C=CC2C1 (configuration not stated) | 19.2 µM (inactive) | – | > 10 µM (inactive) | 5.77 µM (inactive) | 5.35 µM (inactive) | 16.1 µM (inactive) | 14.5 µM (inactive) | 17.7 µM (inactive) | 23.3 µM (inactive) | > 10 µM (inactive) | – | 17.1 µM (inactive) | 6.3 µM (inactive) | 14.6 µM (inactive) | 3.85 µM (inactive) | – | 13.2 µM (inactive) | 14.4 µM (inactive) | – | –
10 | C[C@H](N)C(=O)N[C@@H]1[C@H]2C(=C(O)C[C@@H](O)[C@@H]2O)C(=O)O[C@@H]1C | > 100 µM (inactive) | > 100 µM (inactive) | > 100 µM (inactive) | > 100 µM (inactive) | > 100 µM (inactive) | > 100 µM (inactive) | > 100 µM (inactive) | > 100 µM (inactive) | > 100 µM (inactive) | 77.4 µM (inactive) | > 100 µM (inactive) | > 100 µM (inactive) | > 100 µM (inactive) | > 100 µM (inactive) | > 100 µM (inactive) | > 100 µM (inactive) | > 100 µM (inactive) | – | – | –
11 | Oc1[nH]c(Nc2cccc(Br)c2)nc2ncnc1-2 | > 100 µM (inactive) | 57.7 µM (inactive) | > 100 µM (inactive) | > 100 µM (inactive) | > 100 µM (inactive) | > 100 µM (inactive) | 89.5 µM (inactive) | 56.4 µM (inactive) | > 100 µM (inactive) | 71.8 µM (inactive) | > 100 µM (inactive) | > 100 µM (inactive) | > 100 µM (inactive) | – | 26.5 µM (inactive) | > 100 µM (inactive) | > 100 µM (inactive) | > 100 µM (inactive) | 73.3 µM (inactive) | 98.2 µM (inactive)
12 | COc1cc(CNc2nc3c(NC(C)=O)cc(C(F)(F)F)cc3nc2-c2ccccc2)cc(OC)c1OC | > 100 µM (inactive) | – | > 100 µM (inactive) | > 100 µM (inactive) | > 100 µM (inactive) | > 100 µM (inactive) | > 100 µM (inactive) | > 100 µM (inactive) | > 100 µM (inactive) | > 100 µM (inactive) | – | > 100 µM (inactive) | 19.6 µM (inactive) | > 100 µM (inactive) | > 100 µM (inactive) | – | > 100 µM (inactive) | > 100 µM (inactive) | – | –
13 | COC1=C(C)C(=O)C2=C(C1=O)[C@@H]1[C@@H]3Cc4c(OC(=O)CO)c(C)c(OC)c(O)c4[C@H](CNC(=O)C(C)=O)N3[C@@H](C#N)[C@H](C2)N1C | 0.366 µM (active) | < 0.0353 µM (active) | 0.415 µM (active) | 0.0154 µM (active) | 0.0738 µM (active) | < 0.0155 µM (active) | < 0.0153 µM (active) | 0.0552 µM (active) | 0.0713 µM (active) | 0.0414 µM (active) | 0.0332 µM (active) | < 0.01 µM (active) | 0.0562 µM (active) | 0.0528 µM (active) | < 0.01 µM (active) | < 0.0152 µM (active) | 0.0286 µM (active) | – | – | –
14 | COC1=CC(C2c3cc4c(cc3[C@@H](Nc3ccc([N+](=O)[O-])cc3)C3COC(=O)[C@H]23)OCO4)=CC(=O)C1=O (some centres not stated) | 0.923 µM (active) | 1.54 µM (inactive) | 2.48 µM (inactive) | 3.48 µM (inactive) | 6.24 µM (inactive) | 21.4 µM (inactive) | 14.2 µM (inactive) | 2.53 µM (inactive) | 14.8 µM (inactive) | 3.07 µM (inactive) | – | 2.64 µM (inactive) | 4.46 µM (inactive) | 1.82 µM (inactive) | 6.22 µM (inactive) | 16.1 µM (inactive) | 0.217 µM (active) | 0.912 µM (active) | – | –
15 | C#CCNC(=O)CCC(N)C(=O)O (configuration not stated) | > 100 µM (inactive) | > 100 µM (inactive) | > 100 µM (inactive) | > 100 µM (inactive) | > 100 µM (inactive) | > 100 µM (inactive) | > 100 µM (inactive) | > 100 µM (inactive) | > 100 µM (inactive) | > 100 µM (inactive) | > 100 µM (inactive) | > 100 µM (inactive) | > 100 µM (inactive) | > 100 µM (inactive) | > 100 µM (inactive) | > 100 µM (inactive) | > 100 µM (inactive) | – | – | –
16 | COc1ccc([C@@H]2ON(C)[C@H]3CN(C)C(=O)[C@@H]23)cc1 | > 100 µM (inactive) | 10.1 µM (inactive) | > 100 µM (inactive) | > 100 µM (inactive) | > 100 µM (inactive) | > 100 µM (inactive) | > 100 µM (inactive) | – | > 100 µM (inactive) | > 100 µM (inactive) | > 100 µM (inactive) | > 100 µM (inactive) | – | – | > 100 µM (inactive) | > 100 µM (inactive) | > 100 µM (inactive) | > 100 µM (inactive) | > 100 µM (inactive) | > 100 µM (inactive)
